Data as given in article PMC12298270, “Development and Validation of a New LC-MS/MS Method for Simultaneous Quantification of Ivacaftor, Tezacaftor and Elexacaftor Plasma Levels in Pediatric Cystic Fibrosis Patients” (Pharmaceuticals, 2025).
Like-named read-outs stand apart in the source and are kept apart here.

How the values were obtained:
[1] = system: CFTR; parameters: method as in PMID 36015300; details: cited from earlier work
[2] = parameters: method as in ref 22 = [22]; 22. Kaftrio®, Summary of Product Characteristics (SmPC), European Medicine Agency (EMA) Available online: https://www.ema.europa.eu/en/medicines/human/EPAR/kaftrio (accessed on 3 March 2024); details: cited from earlier work
[3] = Short- and long-term autosampler stability of prepared QC samples at room temperature; format: physicochemical; details: for Stability (%): autosampler; for 9-day autosampler stability: across L-, M- and H-QC levels
Procedure: Both short- and long-term stability were evaluated on prepared QC samples kept at room temperature for a maximum of 9 days. After 24 h from QC sample preparation and first assessment (Time 0), the stability was around 100% for all QC samples. […] Autosampler stability was tested by analyzing IVA, TEZ and ELX concentrations in QCs maintained at room temperature at time 0 (corresponding to preparation of QC samples and to the first measurement) and after 24 h (short-term stability) or 9 days (long-term stability). We also evaluated, on prepared low-, medium- and high-QC samples, the stability following one cycle of freezing (−80 °C) and thawing (after 12 days). To further assess long-term stability, n = 3 T0 and T4 of authentic samples, stored at −80 °C over a period of five months, were randomly chosen and re-analyzed. The percentage difference between the concentration measured at each sampling point and the initial concentration was calculated. Based on ICH guideline M10, a percentage difference below the 15% was considered acceptable.

[4] = Plasma levels of IVA, TEZ and ELX by LC-MS/MS in pediatric cystic fibrosis patients at steady state on Kaftrio; format: in vivo, human; details: for Cmax at 4 h / AUC(0-t): both sexes, human, plasma, oral; for Cmax at 4 h / Plasma concentration T0 (Ctrough), 25th Percentile / Plasma concentration T0 (Ctrough), 75th Percentile / Plasma concentration T0 (Ctrough), Median: steady state; for Cmax at 4 h: 4 h after morning Kaftrio dose; for Plasma concentration T0 (Ctrough), 25th Percentile / Plasma concentration T0 (Ctrough), 75th Percentile / Plasma concentration T0 (Ctrough), Median: before morning Kaftrio dose
Procedure: The clinical performance of our validated method was tested on n = 25 samples from pediatric patients affected by cystic fibrosis. Table 5 reports plasma concentrations of IVA, TEZ and ELX measured before (T0) and 4 h after (T4) the morning dose assumption of Kaftrio® (corresponding to IVA Tmax). For IVA, the plasma concentration at 12 h (T12) was obtained by using C4h*e^−β(t12−t4), and the AUC0–12h was calculated to assess the systemic exposure within the interval between two doses (Table 5). Thereafter, AUC0–12h values were multiplied by 2 in order to perform a regression analysis of T0 concentrations versus AUC0–24h.
The clinical applicability of our validated method was tested on n = 25 plasma samples from pediatric patients with a median (range) age of 9.5 (7–17) years and affected by cystic fibrosis (CF). These patients (n = 14 males and n = 11 females) were followed-up during the routine clinical practice at Pneumology and Cystic Fibrosis Unit of Bambino Gesù Children’s Hospital, and were concomitantly receiving therapies with pancreatic enzymes, bronchodilators, antibiotics (including carbapenems, macrolides, beta-lactams, lipopeptides, fluoroquinolones) and proton pump inhibitors.
In order to evaluate systemic exposure to each CFTR modulator, drug levels were measured at steady-state by collecting EDTA–whole blood samples before (T0, corresponding to the minimum plasma concentration, Ctrough,) and 4 h after the morning dose intake (T4, corresponding to the maximum concentration, Cmax). After centrifugation at 3500 rcf for 5 min, plasma was recovered from whole blood samples. Plasma samples were collected and stored at −80 °C until analysis.
According to the Kaftrio® summary of product characteristics (SmPC), patients received a morning dose consisting of two ivacaftor 75 mg/tezacaftor, 50 mg/elexacaftor, 100 mg tablets, whereas one ivacaftor 150 mg tablet was taken in the evening (every 12 h).
Elexacaftor/tezacaftor/ivacaftor plasma levels were determined using high-performance liquid chromatography (HPLC) coupled to mass spectrometry (MS/MS). EDTA–whole blood samples were collected before (T0) and 4 h after (T4) morning drug intake. Analysis of Kaftrio® plasma levels was performed at Division of Metabolic Diseases and Drug Biology of Bambino Gesù Children’s Hospital, IRCCS, in Rome (Italy). The liquid chromatography (LC) system consisted of an UHPLC Agilent 1290 Infinity II (Agilent Technologies, Deutschland GmbH, Waldbronn, Germany). Gradient chromatographic separation was performed in reverse phase mode with a Luna Omega 1.60 µm Polar C18 (100 × 2.1 mm) column (Phenomenex) maintained at 40 °C, with mobile phase A (0.1% formic acid (FA) in water) and mobile phase B (0.1% formic acid and 25% of 2-propanol in ACN). The flow rate of mobile phases was 0.4 mL/min. The duration of each chromatographic run was 10.50 min.
The volume injected was 1 μL. Detection of IVA, IVA-d9, TEZ, TEZ-d4, ELX and ELX-d3 was carried out using a 6470 Mass Spectrometry system (Agilent Technologies, Deutschland GmbH, Waldbronn, Germany) equipped with an ESI-JET-STREAM source operating in the positive ion (ESI+) mode. Mass spectrometric conditions were as follows: Gas Temperature 350 °C, Gas Flow 9 L/min, Sheath Gas Temperature 300 °C, Sheath Gas Flow 9 L/min, Capillary 4000 V, Nebulizer 35 psi.
A 10 µL measure of IS working solution with IVA-d9, TEZ-d4 and ELX-d3 was added to 50 µL of plasma or CAL or QC or blank sample in darkened tubes. After vortexing for 5 s, 300 µL of pure ACN were added to each sample. Samples were mixed for 60 s and centrifuged at 13,000 rpm for 9 min at room temperature. Thereafter, 200 µL of supernatant were collected in amber glass vials and injected into the UHPLC-MS/MS system.
Demographic data and PK parameters were analyzed using descriptive statistics. The median with interquartile range (IQR) was used to describe Ctrough levels. […]

[5] = Stability of prepared QC samples after one cycle of freezing (−80 °C) and thawing; format: physicochemical; details: low-, medium- and high-QC samples, thawed after 12 days
Procedure: (§1) We have also evaluated the stability of prepared low-, medium- and high-QC samples following one cycle of freezing (−80 °C) and thawing (after 12 days). The calculated stability for ivacaftor, tezacaftor and elexacaftor was 100–107% after 12 days. Patient samples (n = 3 T0 and T4) were randomly selected and re-analyzed after being stored at −80 °C over a period of five months. Compared to the first measurement (time 0), the stability ranged from 85.48 ± 19.83% (mean ± SD) for IVA T4 to 90.55 ± 2.42% for ELX T0 (Supplementary Table S2). Autosampler stability was tested by analyzing IVA, TEZ and ELX concentrations in QCs maintained at room temperature at time 0 (corresponding to preparation of QC samples and to the first measurement) and after 24 h (short-term stability) or 9 days (long-term stability). We also evaluated, on prepared low-, medium- and high-QC samples, the stability following one cycle of freezing (−80 °C) and thawing (after 12 days). To further assess long-term stability, n = 3 T0 and T4 of authentic samples, stored at −80 °C over a period of five months, were randomly chosen and re-analyzed. The percentage difference between the concentration measured at each sampling point and the initial concentration was calculated. Based on ICH guideline M10, a percentage difference below the 15% was considered acceptable.

[6] = parameters: method as in PMID 36831163; details: cited from earlier work
[7] = parameters: method as in PMID 40245791; details: H-QC, after sample preparation; cited from earlier work
[8] = parameters: method as in ref 18 = [18]; 18. U.S. Food and Drug Administration Center for Drug Evaluation and Research: Nda/Bla, Multi-Disciplinary Review and Evaluation, Lumacaftor/Ivacaftor Available online: https://www.accessdata.fda.gov/; details: Trikafta drug registration documents; cited from earlier work
[9] = Long-term −80 °C stability of authentic patient plasma samples; format: physicochemical, human; details: for Stability, % of the first measurement: n = 3 T0 and T4 patients' samples, −80 °C, five months; for Stability (%) mean ± SD, T0 samples / Stability (%) mean ± SD, T4 samples: patient plasma n = 3, stored at −80 °C, 5 months vs Time 0
Procedure: as §1

[10] = parameters: method as in PMID 38494378; details: cited from earlier work
[11] = parameters: method as in PMID 36015300; details: cited from earlier work
[12] = Kaftrio drug registration documents
[13] = H-QC (18 µg/mL), 24 H vs Time 0
[14] = H-QC (18 µg/mL), Day 9 vs Time 0
[15] = L-QC (0.3 µg/mL), 24 H vs Time 0
[16] = L-QC (0.3 µg/mL), Day 9 vs Time 0
[17] = M-QC (8 µg/mL), Day 9 vs Time 0
[18] = n = 25 pediatric CF patients, read-out: Plasma concentration T4 (Cmax), 25th Percentile
[19] = n = 25 pediatric CF patients, read-out: Plasma concentration T4 (Cmax), 75th Percentile
[20] = n = 25 pediatric CF patients, read-out: Plasma concentration T4 (Cmax), Median

Row | Stability (%) [3, 13] | Stability (%) [3, 14] | Stability (%) [3, 15] | Stability (%) [3, 16] | Stability (%) ([3]; M-QC (8 µg/mL), 24 H vs Time 0) | Stability (%) [3, 17] | Cmax at 4 h [4, 18] | Cmax at 4 h [4, 19] | Cmax at 4 h [4, 20] | Plasma concentration T0 (Ctrough), 25th Percentile ([4]; n = 25 pediatric CF patients) | Plasma concentration T0 (Ctrough), 75th Percentile ([4]; n = 25 pediatric CF patients) | Plasma concentration T0 (Ctrough), Median ([4]; n = 25 pediatric CF patients) | Stability after one cycle of freezing and thawing [5] | Stability, % of the first measurement [9] | Stability (%) mean ± SD, T0 samples [9] | Stability (%) mean ± SD, T4 samples [9] | Structure (SMILES) | Remaining % after ten days in the autosampler [7] | Ctrough (Cmin), mean ± SD [8] | Tmax [11] | Minimum concentration (Cmin), median (range) [10] | also measured
1 |  |  |  |  |  |  |  |  |  |  |  |  |  |  |  |  | CC(C)(C)c1cc(C(C)(C)CO)c(O)cc1NC(=O)c1c[nH]c2ccccc2c1=O [M1-IVA, hydroxymethyl ivacaftor] |  |  |  |  | Potency of metabolite relative to parent compound [1]: 1/6
2 | 101.29% | 73.54% | 101.51% | 75.75% | 99.88% | 78.27% | 1070 ng/mL | 2430 ng/mL | 1490 ng/mL | 370 ng/mL | 1340 ng/mL | 790 ng/mL | 100–107% | higher than 85% | 86.96 ± 3.98% | 85.48 ± 19.83% | CC(C)(C)c1cc(C(C)(C)C)c(NC(=O)c2c[nH]c3ccccc3c2=O)cc1O [IVA, Ivacaftor] | 88% | 630 ± 260 ng/mL |  |  | AUC0–12h, mean ± SD [2, 12]: 11700 ± 4010 ng·h/mL; Cmax, mean ± SD [2, 12]: 1240 ± 340 ng/mL; 9-day autosampler stability ([3]; 9 days from day 0): 76%; 9-day autosampler stability ([3]; 9 days from day 0, listed as ivacaftor): 73.54–78.27%; AUC(0-t) ([4]; n = 25 pediatric CF patients, C12h estimated as C4h*e^−β(t12−t4), read-out: Measured AUC0–12h, 25th Percentile): 7930 ng·h/mL; AUC(0-t) ([4]; n = 25 pediatric CF patients, C12h estimated as C4h*e^−β(t12−t4), read-out: Measured AUC0–12h, 75th Percentile): 19400 ng·h/mL; AUC(0-t) ([4]; n = 25 pediatric CF patients, C12h estimated as C4h*e^−β(t12−t4), read-out: Measured AUC0–12h, Median): 11400 ng·h/mL; Back-calculated Ctrough (T0), median (IQR) ([4]; from regression equation of AUC0–24h versus Ctrough (y = 27.6 * x + 4.30)): 0.80 (0.42–1.32) µg/mL; Measured AUC0–12h, 25th Percentile ([4]; n = 25 pediatric CF patients, C12h estimated as C4h*e^−β(t12−t4)): 5330 ng·h/mL; Ctrough, mean ± SD ([6]; adult patients): 900 ± 370 ng/mL; Ctrough, mean ± SD ([6]; children): 710 ± 200 ng/mL; Back-calculated Ctrough, mean ± 1.96 SD [10]: 700 ng/mL
3 | 98.74% | 114.46% | 101.72% | 113.79% | 99.76% | 113.09% | 13300 ng/mL | 24100 ng/mL | 17800 ng/mL | 5820 ng/mL | 12940 ng/mL | 8730 ng/mL | 100–107% | higher than 85% | 90.55 ± 2.42% | 89.18 ± 18.05% | Cc1nn(C)cc1S(=O)(=O)NC(=O)c1ccc(-n2ccc(OCC(C)(C)C(F)(F)F)n2)nc1N1C[C@@H](C)CC1(C)C [ELX, Elexacaftor] | 99.8% | 4050 ± 2070 ng/mL | 6 h | 2800 ng/mL | 
4 | 101.39% | 105.83% | 96.55% | 103.79% | 100.12% | 105.32% | 3750 ng/mL | 6320 ng/mL | 4520 ng/mL | 720 ng/mL | 1870 ng/mL | 1370 ng/mL | 100–107% | higher than 85% | 89.35 ± 4.87% | 85.51 ± 11.87% | CC(C)(CO)c1cc2cc(NC(=O)C3(c4ccc5c(c4)OC(F)(F)O5)CC3)c(F)cc2n1C[C@@H](O)CO [TEZ, Tezacaftor] | 99.8% | 2100 ± 820 ng/mL | 3 h | 1300 ng/mL | Effect of simultaneous ingestion of fatty food on exposure ([2]; Kaftrio SmPC): not affected
